# Values of other authors, collected in paper PMC7770979 (Molecular Metabolism, 2020).
# Test system: IR
substance,measurement,value
SerA12 substitution by alanine: insulin with SerA12 substitution by alanine (ref 34),"Affinity to IR, % of insulin",36%
